Experimental findings from PubChem BioAssay (NCI) are described below.

Values joined by “and” are separate entries in the source; they are usually repeats but may differ in a detail not shown here. Equal entries are not always repeated.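 Growth conditions: 96-well plates. Treatment: test compound, 48 hours, 5 concentrations. Analysis: linear interpolation between bracketing concentrations; unreached endpoints set to highest concentration. The concentration for 50% growth inhibition is given as GI50. The concentration for full growth arrest is given as TGI.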

Test systems include DU-145 prostate; HOP-92 NSCLC; IGROV1 ovarian; MDA-MB-231 breast; NCI-H226 lung; NCI-H460 lung; NCI-H522 lung; RPMI-8226 leukemia; SN12C renal; SW-620 colon.
Assay in all cases: NCI tumour cell line growth inhibition, 48 h

With `CCOC1NC(=O)Oc2cc3ccccc3cc21` (centres undefined), the TGI in the test on DU-145 prostate was greater than 100 µM; with HOP-92 NSCLC, 82.8 µM; in the test on IGROV1 ovarian, greater than 100000 nM; in the test with MDA-MB-231 breast, greater than 100 µM; in the test with NCI-H226 lung it was greater than 100 µM; in the test with NCI-H460 lung, greater than 100 µM. Besides, the TGI with NCI-H522 lung is greater than 100000 nM; with RPMI-8226 leukemia it was greater than 100 µM; in the test on SN12C renal, greater than 100 µM; in the test with SW-620 colon it was greater than 100 µM.

As to `COC(=O)c1c2c(c(C)[n+]([O-])c1C)C(=O)C=C(NCc1cccc(Cl)c1)C2=O`, the GI50 in the test on DU-145 prostate is 821 nM; in the test on HOP-92 NSCLC, 1810 nM; in the test on IGROV1 ovarian, 221 nM; with MDA-MB-231 breast, 261 nM; with NCI-H226 lung, 1410 nM; with NCI-H460 lung it was 381 nM. In addition, the GI50 in the test with NCI-H522 lung was 261 nM; with RPMI-8226 leukemia it was 860 nM; in the test on SN12C renal, 298 nM; with SW-620 colon, 244 nM. The TGI with DU-145 prostate is 2.18 µM; in the test on HOP-92 NSCLC, 4.1 µM; in the test on IGROV1 ovarian, 1090 nM; with MDA-MB-231 breast, 2.77 µM; in the test with NCI-H226 lung it was 3.55 µM; in the test on NCI-H460 lung, 1.6 µM. The TGI is 1700 nM with NCI-H522 lung, 4.28 µM in the test with RPMI-8226 leukemia, 1.02 µM in the test on SN12C renal and 1.23 µM in the test with SW-620 colon.

With `COc1cc(OC)c(OC)cc1/C=C/c1cnnc2ccccc12`, the TGI in the test with DU-145 prostate was greater than 10 µM; in the test on HOP-92 NSCLC, greater than 10 µM; with IGROV1 ovarian, greater than 10000 nM; in the test on MDA-MB-231 breast, greater than 10 µM; with NCI-H226 lung, greater than 10 µM; in the test with NCI-H460 lung, greater than 10 µM. The TGI in the test with NCI-H522 lung was greater than 10000 nM; with RPMI-8226 leukemia it was greater than 10 µM; in the test with SN12C renal it was greater than 10 µM; with SW-620 colon, greater than 10 µM.

For the compound `Cc1c(Cl)cccc1NC(=O)/C=C/c1ccccc1`, the TGI with DU-145 prostate was greater than 100 µM; in the test on HOP-92 NSCLC, greater than 100 µM; with IGROV1 ovarian it was greater than 100000 nM; in the test on MDA-MB-231 breast, 96.3 µM; with NCI-H226 lung it was greater than 100 µM; in the test with NCI-H460 lung, greater than 100 µM. The TGI in the test with NCI-H522 lung was greater than 100000 nM; in the test on RPMI-8226 leukemia, greater than 100 µM; in the test on SN12C renal, greater than 100 µM; in the test on SW-620 colon it was greater than 100 µM.

With `C[C@H]1COCCN1c1cc(C2(S(=O)(=O)C3CC3)CC2)nc(-c2ccc(NC(=S)NCCO)cc2)n1`, the GI50 in the test with DU-145 prostate was 91.9 nM; in the test with HOP-92 NSCLC, less than 10 nM; in the test on IGROV1 ovarian it was less than 10 nM; in the test on MDA-MB-231 breast, 32.7 nM; in the test on NCI-H226 lung it was 23.7 nM; in the test with NCI-H460 lung it was 20 nM. In addition, the GI50 in the test with NCI-H522 lung was 21.5 nM; in the test on RPMI-8226 leukemia, less than 12.5 nM; with SN12C renal, 26.3 nM; with SW-620 colon, 63.4 nM. In addition, the TGI with DU-145 prostate was greater than 100 µM; in the test on HOP-92 NSCLC, 0.0607 µM; in the test with IGROV1 ovarian, 119 nM; in the test on MDA-MB-231 breast, 26.2 µM; in the test on NCI-H226 lung it was 1.34 µM; in the test on NCI-H460 lung, greater than 100 µM. The TGI is 64800 nM in the test with NCI-H522 lung, 1.86 µM with RPMI-8226 leukemia, 61.2 µM in the test on SN12C renal and greater than 100 µM in the test on SW-620 colon.

For the compound `Nc1nc(SCc2ccccc2Cl)cc(C(=O)O)n1`, the TGI in the test with DU-145 prostate is greater than 100 µM; with HOP-92 NSCLC it was greater than 100 µM; in the test with IGROV1 ovarian, greater than 100000 nM; in the test on MDA-MB-231 breast it was greater than 100 µM; with NCI-H226 lung, greater than 100 µM; in the test on NCI-H460 lung it was greater than 100 µM. For the same compound, the TGI in the test with NCI-H522 lung is greater than 100000 nM; with RPMI-8226 leukemia, greater than 100 µM; in the test on SN12C renal, greater than 100 µM; with SW-620 colon, greater than 100 µM.

Consider `CC(=O)OC12c3ccccc3-c3ccccc3C1C(C(=O)O)C2C(=O)O` (centres undefined), for which the TGI in the test on DU-145 prostate was greater than 10 µM; in the test on HOP-92 NSCLC, greater than 10 µM; with IGROV1 ovarian it was greater than 10000 nM; in the test with MDA-MB-231 breast, greater than 10 µM; in the test on NCI-H226 lung it was greater than 10 µM; in the test on NCI-H460 lung, greater than 10 µM. The TGI was greater than 10000 nM with NCI-H522 lung, greater than 10 µM in the test with RPMI-8226 leukemia, greater than 10 µM in the test with SN12C renal and greater than 10 µM in the test with SW-620 colon.

For the compound `O=C(c1ccco1)c1c(C(F)(F)F)n([O-])c2cc(C(F)(F)F)ccc2[n+]1=O`, the GI50 in the test with DU-145 prostate is 549 nM; in the test on HOP-92 NSCLC, 252 nM; in the test on IGROV1 ovarian it was 822 nM; in the test with MDA-MB-231 breast, 1080 nM; with NCI-H226 lung, 1770 nM; with NCI-H460 lung, 537 nM. Also, the GI50 in the test with NCI-H522 lung is 540 nM; in the test with RPMI-8226 leukemia it was 455 nM; with SN12C renal, 1290 nM; in the test with SW-620 colon it was 498 nM. In addition, the TGI came out at 1.21 µM with DU-145 prostate; 1.51 µM in the test with HOP-92 NSCLC; 2520 nM with IGROV1 ovarian; 2.67 µM in the test on MDA-MB-231 breast; 3.58 µM with NCI-H226 lung; 1.8 µM in the test on NCI-H460 lung. Besides, the TGI in the test with NCI-H522 lung was 1170 nM; in the test on RPMI-8226 leukemia it was 1.19 µM; in the test on SN12C renal, 3.45 µM; with SW-620 colon it was 1.1 µM.

`CC(C)c1cccc(O)c(=O)c1`: the GI50 with DU-145 prostate is 2.1 µg/mL; in the test on IGROV1 ovarian, 1.6 µg/mL; with MDA-MB-231 breast, 6.73 µg/mL; in the test with NCI-H460 lung, 0.31 µg/mL; in the test with NCI-H522 lung, 5.16 µg/mL; in the test with RPMI-8226 leukemia it was 0.826 µg/mL. Further, the GI50 in the test with SN12C renal is 4.26 µg/mL; in the test with SW-620 colon it was 3.56 µg/mL. In addition, the TGI with DU-145 prostate is 24.7 µg/mL; in the test on HOP-92 NSCLC, greater than 100 µM; with IGROV1 ovarian, > 75 µg/mL and > 100 µM; with MDA-MB-231 breast, greater than 75 µg/mL; in the test on NCI-H226 lung it was 50.1 µM; in the test with NCI-H522 lung, 28 µg/mL and > 73.1 µM. The TGI with SN12C renal is > 75 µg/mL and > 100 µM; with SW-620 colon it was > 75 µg/mL and > 100 µM.

Consider `CCC1(OC(=O)CN)C(=O)OCc2c1cc1n(c2=O)Cc2cc3ccccc3nc2-1` (centres undefined), for which the GI50 in the test with DU-145 prostate is 5.36 nM; with HOP-92 NSCLC, 97.1 nM; with IGROV1 ovarian it was 134 nM; in the test on MDA-MB-231 breast it was 652 nM; with NCI-H226 lung it was 15.1 nM; in the test with NCI-H460 lung, 3.29 nM. Moreover, the GI50 with NCI-H522 lung was 36.2 nM; in the test on RPMI-8226 leukemia, 31 nM; with SN12C renal, 7.15 nM; in the test with SW-620 colon, 44.8 nM. Also, the TGI in the test on DU-145 prostate is 0.551 µM; in the test with IGROV1 ovarian it was 726 nM and 2210 nM; with MDA-MB-231 breast, 6.04 µM; with NCI-H226 lung, 0.15 µM and 0.0638 µM; in the test on NCI-H522 lung, 590 nM and 624 nM; in the test with RPMI-8226 leukemia it was 0.209 µM. In addition, the TGI with SN12C renal is 0.64 µM; in the test on SW-620 colon, greater than 100 µM.
